Test results published in patent US20050233313A1, “Methods and reagents for identifying inhibitors of viral protease activity” (priority 2002, published 2005).

What follows are substances tested on β-galactosidase substrate with HIV protease cleavage site (assay: cleavage of a β-galactosidase substrate by processed PR expressed from pMono in E. coli, Western blot). Conditions: single alanine substitutions in processed monomeric PR; full-length β-galactosidase cleavage, average of two or more inductions.
Assay type: cell-based
Source text: Plasmid pMono expresses wild-type or mutated monomeric protease from the tac promoter (Amann et al. (1983) Gene 25:167-178) in Escherichia coli and was derived from plasmid P1+IQ (Baum et al. (1990) Proc. Natl. Acad. Sci. USA 87:10023-10027). Protease sequences in P1+1Q were replaced by a linker of 5′ XhoI-XbaI-SalI-PstI 3′ to produce p1CVx. Wild-type or mutated protease sequences were obtained from pET-PR by PCR with primers 5′Xho (AATATA-CTCGAG-[…], SEQ ID NO: 1) and 3′Xba (ATAAAT-TCTAGA-[…], SEQ ID NO: 2) and were inserted into p1CVx to produce pMono. The phagemid pET-PR contains the 99-residue coding domain of the monomeric protease (HXB2 isolate [Ratner et al. (1987) AIDS Res. Hum. Retrovir. 3:57-69]) inserted into the NdeI-BamHI sites of pET24a (Novagen). The Kunkel method using single-stranded templates of pET-PR substituted with uracil was employed for site-directed mutagenesis (Bebenek and Kunkel (1989) Nucleic Acids Res. 17:5408, Kunkel et al. (1991) Methods Enzymol204:125-139). Mutations were confirmed by DNA sequencing prior to transfer of the protease sequences into p1CVx.
Uninduced mid-log-phase (optical density at 600 nm=0.5) cultures of lac-E. coli strain MC1061 carrying pMono were grown in yeast-tryptone medium to produce samples for Western blot analysis. Cells were pelleted, resuspended in 400 μl of sodium dodecyl sulfate (SDS)-polyacrylamide gel electrophoresis (PAGE) sample buffer (Pettit et al. (1991) J. Biol. Chem. 266:14539-14547) (optical density at 600 nm=˜0.5), and heated to 95° C. for 4 min. SDS-PAGE was performed on Tris-glycine gels (7.5% polyacrylamide) (Laemmli (1970) Nature […]). Separated proteins were bound to nitrocellulose by electrotransfer, blocked for 1 h with 3% bovine serum albumin in Tris-buffered saline-0.1% Tween 20, and probed with anti-β-galactosidase monoclonal antibody (Boehringer) at a 1:5,000 dilution. Following multiple washes in Tris-buffered saline-0.1% Tween 20, β-galactosidase was detected with the ECL Plus system followed by autoradiography according to the instructions of the manufacturer (Amersham Pharmacia). The extent of β-galactosidase cleavage was determined by densitometric measurement on a Molecular Dynamics Storm model 800 Phosphorlmager. For scanning, the Phosphorlmager was set in the blue fluorescence and chemifluorescence mode with a photomultiplier tube voltage of 700 V. The final value for percent cleavage of the β-galactosidase substrate was determined by taking the average of two or more independent inductions.
For these studies, we modified an E. coli expression system developed as described in Baum et al. (1990) Proc. Natl. Acad. Sci. USA 87:10023-10027. The vector (pMono) expresses HIV protease and the β-galactosidase gene. A cleavage cassette consisting of a decapeptide corresponding to an HIV protease cleavage site was inserted into the β-galactosidase open reading frame. In this system, enzyme activity may be assessed via Western blotting as the percent cleavage of full-length β-galactosidase.

“D25A: processed HIV-1 protease with replacement of the catalytic aspartate, negative control” and “F99A: processed HIV-1 protease with single alanine substitution of dimer interface residue Phe 99” are the same in “% Cleavage” value: 0% for the first, 0% for the second.

First: L97A: processed HIV-1 protease with single alanine substitution of dimer interface residue Leu 97
Second: N98A: processed HIV-1 protease with single alanine substitution of dimer interface residue Asn 98
The “% Cleavage” value of the first is lower: 0% for the first, 68% for the second.

Going from “P1A: processed HIV-1 protease with single alanine substitution of dimer interface residue Pro 1” to “Q2A: processed HIV-1 protease with single alanine substitution of dimer interface residue Gln 2”, the “% Cleavage” value rises from 92% to 96%.

First: T4A: processed HIV-1 protease with single alanine substitution of dimer interface residue Thr 4
Second: T96A: processed HIV-1 protease with single alanine substitution of dimer interface residue Thr 96
The “% Cleavage” value of the first is higher: 96% for the first, 14% for the second.

In the case of “Wild type: wild-type mature 99-residue monomeric HIV-1 protease (HXB2) expressed from pMono”, the “% Cleavage” value is reported as 96%.
